Measurements: patent US20240299562A1 (priority 2020, published 2024)
Like-named read-outs stand apart in the source and are kept apart here. Where a SMILES comes first, the peptide text is derived from it.

Legend:
[1] = system: U87 MG glioblastoma cells subcutaneously implanted in nude NMRI mice; assay: In vivo activity of PhAc-ALLP-Dox on U87 MG glioblastoma xenograft; design: species or system mouse; settings: 154 mg/kg iv, once per week
Method: The in vivo efficacy of PhAc-ALLP-Dox was tested in a mouse GBM model. U87 MG glioblastoma cells were subcutaneously (SC) implanted in nude NMRI mice. In total, 32 adult (9-10 weeks old) nude female NMRI mice (Janvier, France) were subjected to SC tumor cell grafting in the right flank. In total, 5×10^6 U87 MG cells resuspended in PBS plus Matrigel (1:1) were injected in 200 uL final volume. As soon as the tumors were palpable and reached the volume of 200 mm3 the treatment was started. At day zero, mice were randomly divided into 4 groups, based on the tumor volume, in order to have the following experimental sub-cohorts: • control group receiving the vehicle (PBS pH7.2) with a dose of 5 ml/kg, intravenously (iv), once per week (QW); • PhAc-ALLP-Dox (30 mg/kg iv, QW); • PhAc-ALGP-Dox (154 mg/kg iv, QW); • Dox (5 mg/kg iv, QW).
Treatments were performed once per week for a total of four tail vein administrations/injections (on days 1, 7, 14 and 21). One extra week of observation followed the active treatment phase. During the experiment, tumor volume was measured two times a week and was assessed three-dimensionally with a digital caliper (Mitutoyo, Illinois) using the following formula:
V=4/3π×[(d/2)^2×(D/2)], where d is the minor tumor axis and D is the major tumor axis.

HME-1 cells = assay: WST-1 cell viability, normal HME-1 cells; format: cell-based, human; settings: for IC50: HME-1 normal cells, 72 hrs continuous drug exposure, WST-1 (Table 1), read-out: Absolute IC50
Method: (§1) All commercial cell lines were purchased at ATCC (LGC Standards SARL, France). Cells were seeded in 96-well plates according to their optimal seeding density, varying between 5.000 and 10.000 cells/well. After attachment overnight, 10-point serial titrations (1:5) were prepared in their equivalent complete media as recommended by ATCC, starting from the 10 mM stock solutions. For doxorubicin comprising prodrugs dilutions started from 100 μM, while for the parent compound doxorubicin dilutions started at 10 μM. […] Seventy-two hours later, compounds were removed together with the supernatants and cells were washed once with PBS to remove excess drugs.
(§2) The WST-1 assay for cell proliferation and viability (Roche, Switzerland) was performed according to manufacturer's protocol. Absorbances were measured at 4 hrs using a Perkin Elmer Ensight multiplate reader, equipped with Kaleido 2.0 software (Perkin Elmer, USA). Cell viability was expressed as a percentage compared to non-treated cells. Absolute IC50 values were extrapolated from a non-linear fitting following the Sigmoidal-4PL regression method using Graphpad Prism 7.0. Likewise, maximal efficacy was determined as 100% minus the cell viability determined when cells are incubated in the presence of a compound. For instance, if 20% of the cells survive incubation in the presence of a compound, then the maximal efficacy of that compound is 100%-20%=80%.
(§3) Selectivity indices (SI) were defined as the ratio of the concentration of drug required to kill 50% of the cells in normal (control, non-cancer) cells, divided by the concentration required to exert the same efficacy in tumor cells: SI=IC50 (control cell)/IC50 (cancer cell), or SI=^HME-1IC50/cancer IC50.

[2] = WST-1 cell viability, normal HME-1 cells; format: cell-based, human; settings: human; HME-1 normal cells; 72 hrs, WST-1 (Table 2); read-out: Maximal efficacy, cytotoxicity (%) at 100 μM
Method: as §1, §2, §3

A2780 cells = assay: WST-1 cell viability, A2780 ovarian cancer cells; format: cell-based
Method: as §1, §2, §3

LS 174T cells = assay: WST-1 cell viability, LS 174T colorectal cancer cells; format: cell-based
Method: as §1, §2, §3

A2780 Cp cells = assay: WST-1 cell viability, A2780 CpR (cisplatin resistant) ovarian cancer cells; format: cell-based
Method: as §1, §2, §3

cancer cell lines = assay: In vitro potency and selectivity across a variety of cancer indications (WST-1); format: cell-based; settings: 72 hrs
Method: as §1
as §2, with “For instance, if 20% of the cells survive incubation in the presence of a compound, then the maximal efficacy of that compound is 100%-20%=80%.” left out

DU145 cells = assay: WST-1 cell viability, DU145 prostate cancer cells; format: cell-based
Method: as §1, §2, §3

NCI-H292 cells = assay: WST-1 cell viability, NCI-H292 lung cancer cells; format: cell-based
Method: as §1, §2, §3

MIA PaCa-2 cells = assay: WST-1 cell viability, MIA PaCa-2 pancreatic cancer cells; format: cell-based
Method: as §1, §2, §3

MDA-MB-231 cells = assay: WST-1 cell viability, MDA-MB-231 triple negative breast cancer cells; format: cell-based
Method: as §1, §2, §3

MDA-MB-468 cells = assay: WST-1 cell viability, MDA-MB-468 triple negative breast cancer cells; format: cell-based
Method: as §1, §2, §3

A2058 cells = assay: WST-1 cell viability, A2058 melanoma cells; format: cell-based
Method: as §1, §2, §3

U-87 MG cells = assay: WST-1 cell viability, U-87 MG glioblastoma cells; format: cell-based
Method: as §1, §2, §3

A-172 cells = assay: WST-1 cell viability, A-172 glioblastoma cells; format: cell-based
Method: as §1, §2, §3

HCT-116 cells = assay: WST-1 cell viability, HCT-116 colorectal cancer cells; format: cell-based
Method: as §1, §2, §3

NCI-1299 cells = assay: WST-1 cell viability, NCI-H1299 lung cancer cells; format: cell-based
Method: as §1, §2, §3

[3] = in mice; cited from earlier work
[4] = chronic treatment in rats, doses up to 8-fold higher; cited from earlier work
[5] = in dogs; cited from earlier work
[6] = cited from earlier work

COc1cccc2c1C(=O)c1c(O)c3c(c(O)c1C2=O)C[C@@](O)(C(=O)CO)C[C@@H]3O[C@H]1C[C@H](NC(=O)[C@@H]2CCCN2C(=O)CNC(=O)[C@H](CC(C)C)NC(=O)[C@H](C)NC(=O)CP(=O)(O)O)[C@H](O)[C@H](C)O1 [PhAc-ALGP-Dox, reference compound] (HELM PEPTIDE1{[O=C(CP(=O)(O)O)[*:2]].A.L.G.P.[COc1cccc2c1C(=O)c1c(O)c3c(c(O)c1C2=O)C[C@@](O)(C(=O)CO)C[C@@H]3O[C@H]1C[C@H](N[*:1])[C@H](O)[C@H](C)O1]}$$$$V2.0)
Tumor growth [1]: significantly reduced tumor growth | IC50 (HME-1 cells): > 100 µM | cytotoxicity at 72 h, 100 µM [2]: 31.2%

COc1cccc2c1C(=O)c1c(O)c3c(c(O)c1C2=O)C[C@@](O)(C(=O)CO)C[C@@H]3O[C@H]1C[C@H](NC(=O)[C@@H]2CCCN2C(=O)[C@H](CCCCN)NC(=O)[C@@H]2CCCN2C(=O)[C@H](C)NC(=O)CP(=O)(O)O)[C@H](O)[C@H](C)O1 [PhAc-APKP-Dox] (HELM PEPTIDE1{[O=C(CP(=O)(O)O)[*:2]].A.P.K.P.[COc1cccc2c1C(=O)c1c(O)c3c(c(O)c1C2=O)C[C@@](O)(C(=O)CO)C[C@@H]3O[C@H]1C[C@H](N[*:1])[C@H](O)[C@H](C)O1]}$$$$V2.0)
SI = HME-1 IC50/cancer IC50 (A2780 cells; A2780 (OvC) vs HME-1 (Table 3)): 21.13 | IC50 (A2780 cells; A2780 (OvC), 72 hrs, WST-1 (Table 1), read-out: Absolute IC50): 0.86 µM | Maximal efficacy, cytotoxicity (%) at 100 μM (A2780 cells; A2780 (OvC), 72 hrs, WST-1 (Table 2)): 87.34% | SI = HME-1 IC50/cancer IC50 (LS 174T cells; LS 174T (CrC) vs HME-1 (Table 3)): 1.23 | IC50 (LS 174T cells; LS 174T (CrC), 72 hrs, WST-1 (Table 1), read-out: Absolute IC50): 14.7 µM | Maximal efficacy, cytotoxicity (%) at 100 μM (LS 174T cells; LS 174T (CrC), 72 hrs, WST-1 (Table 2)): 53.72% | SI = HME-1 IC50/cancer IC50 (A2780 Cp cells; A2780 Cp (OvC) vs HME-1 (Table 3)): 1.62 | Maximal efficacy, cytotoxicity (%) at 100 μM (A2780 Cp cells; A2780 Cp (OvC), 72 hrs, WST-1 (Table 2)): 74.61% | IC50 (A2780 Cp cells; A2780 Cp (OvC, cisplatin resistant), 72 hrs, WST-1 (Table 1), read-out: Absolute IC50): 11.2 µM | Potency range against cancer cells (cancer cell lines): within the micromolar range | SI = HME-1 IC50/cancer IC50 (DU145 cells; DU145 (PrC) vs HME-1 (Table 3)): 2.02 | IC50 (DU145 cells; DU145 (PrC), 72 hrs, WST-1 (Table 1), read-out: Absolute IC50): 8.93 µM | Maximal efficacy, cytotoxicity (%) at 100 μM (DU145 cells; DU145 (PrC), 72 hrs, WST-1 (Table 2)): 91.93% | SI = HME-1 IC50/cancer IC50 (NCI-H292 cells; NCI-H292 (NSCLC) vs HME-1 (Table 3)): 0.70 | IC50 (NCI-H292 cells; NCI-H292 (NSCLC), 72 hrs, WST-1 (Table 1), read-out: Absolute IC50): 25.9 µM | Maximal efficacy, cytotoxicity (%) at 100 μM (NCI-H292 cells; NCI-H292 (NSCLC), 72 hrs, WST-1 (Table 2)): 63.26% | SI = HME-1 IC50/cancer IC50 (MIA PaCa-2 cells; MIA PaCa-2 (PaC) vs HME-1 (Table 3)): 0.40 | IC50 (MIA PaCa-2 cells; MIA PaCa-2 (PaC), 72 hrs, WST-1 (Table 1), read-out: Absolute IC50): 45.7 µM | Maximal efficacy, cytotoxicity (%) at 100 μM (MIA PaCa-2 cells; MIA PaCa-2 (PaC), 72 hrs, WST-1 (Table 2)): 77.65% | SI = HME-1 IC50/cancer IC50 (HME-1 cells; HME-1 normal cells against themselves (Table 3)): 1.00 | IC50 (HME-1 cells): 18.1 µM | cytotoxicity at 72 h, 100 µM [2]: 81.5% | SI = HME-1 IC50/cancer IC50 (MDA-MB-231 cells; MDA-MB-231 (TNBC) vs HME-1 (Table 3)): 8.49 | IC50 (MDA-MB-231 cells; MDA-MB-231 (TNBC), 72 hrs, WST-1 (Table 1), read-out: Absolute IC50): 2.13 µM | Maximal efficacy, cytotoxicity (%) at 100 μM (MDA-MB-231 cells; MDA-MB-231 (TNBC), 72 hrs, WST-1 (Table 2)): 89.12% | SI = HME-1 IC50/cancer IC50 (MDA-MB-468 cells; MDA-MB-468 (TNBC) vs HME-1 (Table 3)): 4.02 | IC50 (MDA-MB-468 cells; MDA-MB-468 (TNBC), 72 hrs, WST-1 (Table 1), read-out: Absolute IC50): 4.49 µM | Maximal efficacy, cytotoxicity (%) at 100 μM (MDA-MB-468 cells; MDA-MB-468 (TNBC), 72 hrs, WST-1 (Table 2)): 91.83% | SI = HME-1 IC50/cancer IC50 (A2058 cells; A2058 (Melanoma) vs HME-1 (Table 3)): 3.69 | IC50 (A2058 cells; A2058 (Melanoma), 72 hrs, WST-1 (Table 1), read-out: Absolute IC50): 4.9 µM | Maximal efficacy, cytotoxicity (%) at 100 μM (A2058 cells; A2058 (Melanoma), 72 hrs, WST-1 (Table 2)): 96.27% | SI = HME-1 IC50/cancer IC50 (U-87 MG cells; U-87 MG (GBM) vs HME-1 (Table 3)): 1.46 | IC50 (U-87 MG cells; U-87 MG (GBM), 72 hrs, WST-1 (Table 1), read-out: Absolute IC50): 12.4 µM | Maximal efficacy, cytotoxicity (%) at 100 μM (U-87 MG cells; U-87 MG (GBM), 72 hrs, WST-1 (Table 2)): 88.38% | SI = HME-1 IC50/cancer IC50 (A-172 cells; A-172 (GBM) vs HME-1 (Table 3)): 0.49 | IC50 (A-172 cells; A-172 (GBM), 72 hrs, WST-1 (Table 1), read-out: Absolute IC50): 36.9 µM | Maximal efficacy, cytotoxicity (%) at 100 μM (A-172 cells; A-172 (GBM), 72 hrs, WST-1 (Table 2)): 91.93% | SI = HME-1 IC50/cancer IC50 (HCT-116 cells; HCT-116 (CrC) vs HME-1 (Table 3)): 1.47 | IC50 (HCT-116 cells; HCT-116 (CrC), 72 hrs, WST-1 (Table 1), read-out: Absolute IC50): 12.3 µM | Maximal efficacy, cytotoxicity (%) at 100 μM (HCT-116 cells; HCT-116 (CrC), 72 hrs, WST-1 (Table 2)): 81.05% | SI = HME-1 IC50/cancer IC50 (NCI-1299 cells; NCI-1299 (NSCLC) vs HME-1 (Table 3)): 1.72 | IC50 (NCI-1299 cells; NCI-1299 (NSCLC), 72 hrs, WST-1 (Table 1), read-out: Absolute IC50): 10.5 µM | Maximal efficacy, cytotoxicity (%) at 100 μM (NCI-1299 cells; NCI-1299 (NSCLC), 72 hrs, WST-1 (Table 2)): 75.52%

COc1cccc2c1C(=O)c1c(O)c3c(c(O)c1C2=O)CC(O)(C(=O)CO)CC3OC1CC(NC(=O)C(CC(C)C)NC(=O)C(C)NC(=O)C(CC(C)C)NC(=O)CCNC(=O)CCC(=O)O)C(O)C(C)O1 [Suc-βALAL-dox, N-succinyl-beta-alanyl-L-leucyl-L-alanyl-L-leucyl-doxorubicin]
Times less toxic compared with unconjugated doxorubicin [3]: about 5 times | Cardiotoxicity compared with Dox [4]: significantly less cardiotoxic | Times less toxic compared with unconjugated doxorubicin [5]: 3 times | Clinical benefit, share of evaluable patients ([6]; phase I clinical study (Delord et al., unpublished)): 59% | Cardiac adverse events ([6]; phase I clinical study, even at very high cumulative doses (2750 mg/m^2)): No drug-related, severe cardiac adverse events were reported | Dose at which myelotoxicity occurred compared with free doxorubicin ([6]; phase I clinical study): three times higher doses
